{"source": "paper PMC6017654", "about": "“Ionic Liquid-Promoted Synthesis of Novel Chromone-Pyrimidine Coupled Derivatives, Antimicrobial Analysis, Enzyme Assay, Docking Study and Toxicity Study” (Molecules : A Journal of Synthetic Chemistry and Natural …, 2018)", "key": {"[1]": {"tested_on": "HeLa (human cervical cancer cell line)", "assay": "In vitro cytotoxicity, Sulforhodamine B (SRB) assay", "type": "cell-based", "settings": "up to 80 µg/mL", "source_text": "(§1) Toxicity scrutiny of synthesized compounds at the early phase of research paves the way to clinical trials and reduces the failure of potential therapeutics at later stages of clinical trials. To scrutinize the safety and selectivity of antimicrobial activity of the synthesized compounds, the compounds 6c and 6f were appraised for their toxicity against HeLa (a human cervical cancer cell line) and PC-3 (human prostate cancer cell line) by the Sulforhodamine B (SRB) assay using adriamycin as a standard drug.\n(§2) The images were captured using an Eclipse Ti-S Inverted Research Microscope (Nikon, Tokyo, Japan). Image processing software used was NIS-Elements."}, "[2]": {"assay": "In vitro cytotoxicity, Sulforhodamine B (SRB) assay", "type": "cell-based, human", "settings": "human, range 80 to 0.55 μg/mL", "source_text": "as §1, §2"}, "DdlB from E.coli": {"target": "DdlB from E.coli (Escherichia coli, UniProt P07862)", "assay": "D-Alanine-D-alanine ligase (DdlB) enzyme inhibition, malachite green method", "type": "biochemical", "settings": "37 °C, 30 min incubation, 5% DMSO", "protocol": "The key enzyme involved in the peptidoglycan biosynthesis is D-alanine-D-alanine ligase (Ddl), making it an important target for drug discovery. Inhibition of DdlB as an essential enzyme in either Gram-positive or Gram-negative organisms leads to the loss of cell shape and integrity followed by bacterial death. The synthesized derivatives 4(a–f) and 6(a–f) were tested for their inhibitory activity on DdlB from E.coli. The results are presented as IC50 values.\nThe D-Ala-adding activity of DdlB ligase was monitored by the detection of orthophosphate generated during the reaction based on the colorimetric malachite green method described by Walsh et al.. […] All the compounds were soluble in the assay mixture containing 5% DMSO. After 30 min of incubation, 100 µL Biomol reagent was added. After 5 min, absorbance was read at 650 nm. Residual activity was calculated with respect to a similar assay without inhibitor. To exclude possible non-specific (promiscuous) inhibitors, representative compounds 4(a–f) and 6(a–f) were also tested in the presence of Tween (0.003%), Triton X-114 (0.005%), and SDS (420 µM), as described by McGovern et al.. No significant differences were found when compared to measurements without detergents."}, "[3]": {"tested_on": "Escherichia coli SM1411 (an acrAB deficient derivative of 1411)", "assay": "In vitro antibacterial activity (MIC100, two fold serial dilution, NCCLS)", "type": "cell-based", "settings": "24 h, read-out: MIC100", "protocol": "(§3) All the synthesized compounds 4(a–f) and 6(a–f) were screened for their in vitro antibacterial activity against Staphylococcus aureus (NCIM-2901), Escherichia coli 1411 (standard laboratory strains) and Escherichia coli SM1411 (an acrAB deficient derivative of 1411). Minimum inhibitory concentration (MIC100) values were determined using methods recommended by National Committee for Clinical Laboratory Standards (NCCLS). Dimethyl sulfoxide (DMSO) was used as solvent control.\n(§4) All the synthesized compounds 4(a–f) and 6(a–f) were screened for their in vitro antibacterial activity against Staphylococcus aureus (NCIM-2901) and Escherichia coli 1411 (standard laboratory strains) and Escherichia coli SM1411 (an acrAB deficient derivative of 1411). Minimum inhibitory concentration (MIC100) values were determined using the method recommended by National Committee for Clinical Laboratory Standards (NCCLS). In vitro antibacterial activities of the synthesized compounds 4(a–f) and 6(a–f) were tested in Nutrient Broth (NB) for Bacteria by the two fold serial dilution method. Seeded broth (broth containing microbial spores) was prepared in NB from 24 h old bacterial cultures on nutrient agar (Hi-media) at 37 ± 1 °C. The bacterial suspension was adjusted with sterile saline to a concentration of […]. The synthesized compounds and standard drug D-cycloserine were prepared by two fold serial dilutions to obtain the required concentrations. The tubes were incubated in BOD incubators at 37 ± 1 °C for bacteria. The MICs were recorded by visual observations after 24 h (for bacteria) of incubation."}, "[4]": {"tested_on": "Staphylococcus aureus (NCIM-2901)", "assay": "In vitro antibacterial activity (MIC100, two fold serial dilution, NCCLS)", "type": "cell-based", "settings": "Staphylococcus aureus, NCIM2901, 24 h, read-out: MIC100, S. aureus NCIM-2901, average of three readings", "protocol": "as §3, §4"}, "Escherichia coli 1411": {"tested_on": "Escherichia coli 1411", "assay": "In vitro antibacterial activity (MIC100, two fold serial dilution, NCCLS)", "type": "cell-based", "settings": "Escherichia coli, 1411, 24 h, read-out: MIC100", "protocol": "as §3, §4"}, "[5]": {"tested_on": "ergosterol biosynthesis in Candida albicans (NCIM-3471)", "assay": "Ergosterol extraction and quantitation assay (UV sterol profile)", "type": "cell-based", "settings": "C. albicans NCIM3471", "protocol": "Changes in this absorption pattern are therefore indicative of interference in the synthetic pathway of ergosterol.\nA single Candida albicans (NCIM-3471) colony from an overnight Sabouraud dextrose agar plate culture was used to inoculate 50 mL of Sabouraud dextrose broth for control and for various concentrations of the molecules. The cultures were incubated for 16 hours and harvested by centrifugation at 2700 rpm (856× g) for five min. The net weight of the cell pellet was determined. Three mL of 25% alcoholic potassium hydroxide solution was added to each pellet and vortex mixed for one min. Cell suspensions were transferred to sterile borosilicate glass screw-cap tubes and were incubated in an 85 °C water bath for one hour. Following incubation, the tubes were allowed to cool. Sterols were then extracted by addition of a mixture of 1 mL of sterile distilled water and 3 mL of n-heptane followed by vigorous vortex mixing for 3 min. The heptane layer was transferred to a clean borosilicate glass screw-cap tube and stored at −20 °C. Prior to analysis, 0.6 mL aliquot of sterol extract was diluted five fold in 100% ethanol and scanned spectrophotometrically between 240 nm and 300 nm with a spectrophotometer (UV-Visible Spectrophotometer 2100, Thermo Fischer Scientific, Waltham, MA, USA). The presence of ergosterol and the late sterol intermediate 24(28)-dehydroergosterol (DHE) in the extracted sample results in a characteristic four-peaked curve. The absence of detectable ergosterol in extracts was indicated by a flat line.\nSterols were extracted from cells and spectral profiles between 240 and 300 nm were determined."}}}
{"smiles": "COc1ccc2occ(C3NC(=S)NC(C)=C3C(=O)NN)c(=O)c2c1", "note": "(stereo not drawn) [Compound 6f, 4-(6-Methoxy-4-oxo-4H-chromen-3-yl)-6-methyl-2-thioxo-1,2,3,4-tetrahydropyrimidine-5-carbohydrazide]", "values": [{"measurement": "cell inhibition", "setting": "[1]", "result": "cell inhibition did not occur"}, {"measurement": "GI50", "setting": "[2]; HeLa cells, SRB assay", "result": "> 80", "unit": "µg/mL"}, {"measurement": "GI50", "setting": "[2]; PC-3 cells", "result": "> 80", "unit": "µg/mL"}, {"measurement": "IC50", "setting": "DdlB from E.coli", "result": "> 400", "unit": "µM"}, {"measurement": "MIC", "setting": "[3]", "result": "> 60", "unit": "µg/mL"}, {"measurement": "MIC", "setting": "[4]", "result": "> 200", "unit": "µg/mL"}, {"measurement": "MIC", "setting": "Escherichia coli 1411", "result": "> 60", "unit": "µg/mL"}, {"measurement": "ergosterol peak in UV sterol profile at the MIC value", "setting": "[5]; 6f 24 µg/mL, miconazole 25 µg/mL, 281.5 nm", "result": "almost a flat peak"}, {"measurement": "ergosterol peak at 281.5 nm with increasing concentration", "setting": "[5]; MIC/16 to MIC (1.5 to 24 µg/mL)", "result": "intensity of the ergosterol peak at 281.5 nm decreases"}]}
